Publication PMC3763632, “Radiosynthesis and Radiotracer Properties of a 7-(2-[^18F]Fluoroethoxy)-6-methoxypyrrolidinylquinazoline for Imaging of Phosphodiesterase 10A with PET” (Pharmaceuticals, 2012)
Values joined by “and” are separate entries in the source; they are usually repeats but may differ in a detail not shown here. Identical values can stand only once. Like-named read-outs stand apart in the source and are kept apart here.

How the values were obtained:
PDE4A = system: PDE4A; design: method as in earlier work; conditions: cited from earlier work
PDE 9A = system: PDE 9A; design: method as in earlier work; conditions: cited from earlier work
PDE3A = system: PDE3A; design: method as in earlier work; conditions: cited from earlier work
PDE 8A = system: PDE 8A; design: method as in earlier work; conditions: cited from earlier work
PDE 5A = system: PDE 5A; design: method as in earlier work; conditions: cited from earlier work
PDE 7B = system: PDE 7B; design: method as in earlier work; conditions: cited from earlier work
PDE 2A = system: PDE 2A; design: method as in earlier work; conditions: cited from earlier work
[1] = log D7.0 by RP-HPLC retention; assay type: physicochemical; conditions: MeCN/NH4OAc, pH 7.0, read-out: Log D
From the text: To clarify these findings, we determined the ligand distribution coefficients for [^18/19F]IV experimentally, under physiological pH conditions in solid-liquid phase systems via retention on RP-HPLC, and in liquid-liquid phase systems by conventional shake-flask method. […] All in one, an experimental log D7.0–7.4 value of ~2.7 promised a good potential for brain uptake of [^18F]IV in vivo, attended by low unspecific binding.
Referring to an OECD guideline and using a series of reference compounds (nitrobenzene, p-nitrophenol, benzene, toluene, chlorobenzene, benzophenone, naphthalene, 1,4-dibromobenzene, biphenyl, diphenylether, 1,4-diiodobenzene) with known log POW values comprised between 1.89 and 4.64, retention times were determined on two reversed phase columns (Multospher 120 RP-18 AQ, 250 mm × 4.6 mm, 5 μm, CS-Chromatographie Service GmbH, Langerwehe, Germany; SupelcosilTM ABZ + Plus, 250 × 4 mm, 5 μm, Supelco, Bellefonte, PA, USA). […] Dead times t0 were determined by retention of thiourea. Corresponding capacity factors k for all compounds were calculated and plotted as log k versus log P of the standard compounds, affording calibration curves (Microcal^TM Origin 6.0, Microcal Software, Inc., Northhampton, MA, USA). […]

PDE10A [2] = target: T1, PDE10A (Homo sapiens, UniProt Q9Y233); design: method as in earlier work; conditions: cited from earlier work
T1 construct: purchased Biocrea GmbH, Radebeul, Germany; host or cells: SF21 insect cells (PDE10A-transfected; baculovirus system is mentioned)

PDE10A [3] = target: T1, PDE10A; experiment: Homologous competitive binding on membrane homogenates of PDE10A-transfected SF21 cells; conditions: read-out: IC50 (homologous competition vs [18F]IV)
Description: The dissociation constant KD of [^18F]IV was determined in homologous competitive binding experiments by nonlinear regression analysis. Cell membrane homogenates from PDE10A-transfected SF21 cells (100 µg protein/mL incubation volume) were incubated with solutions of six concentrations of IV (working concentration 10 pM–[…]), each spiked with a fixed concentration of [^18F]IV (working concentration 0.05–0.1 nM).
Crude membrane homogenates isolated from PDE10A-transfected SF21 cells were obtained from Biocrea GmbH, Radebeul, Germany. For competitive radioligand displacement experiments (n = 2), the membrane preparations were diluted with incubation buffer (50 mM Tris-HCl, pH 7.4 at room temperature, 5 mM MgCl2) and re-homogenized by passing through a 27-gauge needle. The protein (100 µg) was incubated with 0.05–0.1 nM of [^18F]IV and different concentrations of IV (10 pM–1 µM), diluted from a 10 mM stock in DMSO, at a final volume of 1 mL. Nonspecific binding was determined in the presence of 10 µM of I, and control incubation was carried out accordingly using crude membrane preparations obtained from non-transfected SF21 cells.
Incubation at room temperature was terminated after 120 min by rapid filtration (Brandel 48-channel harvester; Biomedical Research and Development Lab. Inc., Gaithersburg, MD, USA) on Whatman GF/B glass-fiber filters, pre-soaked for 90 min in 0.3% polyethylenimine (Sigma, Deisenhofen, Germany), followed by washing four times with 4 mL of ice-cold wash buffer (50 mM Tris-HCl, pH 7.4 at 4 °C). Filter-bound radioactivity was quantified using a calibrated γ-counter (Wallac WIZARD, Perkin Elmer, Waltham, MA, USA).
Each experiment was carried out in triplicate. The binding parameter IC50 was estimated using iterative non-linear curve fitting. KD of [^18F]IV was estimated directly from homologous competition curve with KD = IC50-[radioligand] as well as from the respective saturation isotherm by nonlinear regression analysis.

PDE 6 = system: PDE 6; design: method as in earlier work; conditions: cited from earlier work
PDE 1B = system: PDE 1B; design: method as in earlier work; conditions: cited from earlier work
PDE 11A = system: PDE 11A; design: method as in earlier work; conditions: cited from earlier work
PDE10A [4] = target: T1, PDE10A; conditions: cited from earlier work

T1 sequence (Q9Y233 whole entry, species assumed): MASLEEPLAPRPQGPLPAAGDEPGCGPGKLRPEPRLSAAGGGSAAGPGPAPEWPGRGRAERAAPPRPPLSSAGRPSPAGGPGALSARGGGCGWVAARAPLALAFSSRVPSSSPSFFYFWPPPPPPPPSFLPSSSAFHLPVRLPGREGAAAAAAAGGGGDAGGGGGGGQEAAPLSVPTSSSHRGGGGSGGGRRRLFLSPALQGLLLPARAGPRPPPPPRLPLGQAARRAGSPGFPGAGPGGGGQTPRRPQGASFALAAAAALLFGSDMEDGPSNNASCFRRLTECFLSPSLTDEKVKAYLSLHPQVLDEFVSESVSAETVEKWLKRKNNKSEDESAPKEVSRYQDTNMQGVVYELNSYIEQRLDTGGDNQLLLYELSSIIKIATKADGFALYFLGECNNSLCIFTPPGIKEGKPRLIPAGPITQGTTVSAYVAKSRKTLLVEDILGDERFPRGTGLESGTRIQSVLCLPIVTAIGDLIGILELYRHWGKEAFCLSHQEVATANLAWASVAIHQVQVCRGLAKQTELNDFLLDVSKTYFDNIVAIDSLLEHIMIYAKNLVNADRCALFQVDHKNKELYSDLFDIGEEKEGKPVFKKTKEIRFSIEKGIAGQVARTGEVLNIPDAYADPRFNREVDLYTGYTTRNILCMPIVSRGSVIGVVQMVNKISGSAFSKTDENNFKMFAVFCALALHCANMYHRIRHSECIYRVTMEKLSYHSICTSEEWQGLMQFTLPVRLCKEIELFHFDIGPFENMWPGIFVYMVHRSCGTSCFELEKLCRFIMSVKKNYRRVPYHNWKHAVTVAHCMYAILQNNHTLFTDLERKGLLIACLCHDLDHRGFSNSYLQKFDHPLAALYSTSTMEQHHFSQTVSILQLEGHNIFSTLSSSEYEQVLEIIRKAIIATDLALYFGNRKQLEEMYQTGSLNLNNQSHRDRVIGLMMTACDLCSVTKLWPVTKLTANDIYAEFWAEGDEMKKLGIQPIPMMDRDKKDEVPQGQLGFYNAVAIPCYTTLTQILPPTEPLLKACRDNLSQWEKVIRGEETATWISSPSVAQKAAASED

| chromatographic logD ([1]; Multospher 120 RP-18 AQ column, Multospher) | chromatographic logD ([1]; Supelcosil ABZ+Plus column, Supelcosil) | IC50 (PDE10A [3]; mean, n = 2, 0.05–0.1 nM [18F]IV) | IC50 (PDE10A [3]; single experiments (n = 2)) | Compound | IC50 (PDE4A) | IC50 (PDE 9A) | IC50 (PDE3A) | IC50 (PDE 8A) | IC50 (PDE 5A) | IC50 (PDE 7B) | IC50 (PDE 2A) | IC50 (PDE10A [2]; PDE10A) | Ki (PDE10A [2]; data to be published in detail elsewhere) | IC50 (PDE 6) | IC50 (PDE 1B) | IC50 (PDE 11A) | IC50 (PDE10A [4]) | pIC50,PDE10A (PDE10A [4]) |
| --- | --- | --- | --- | --- | --- | --- | --- | --- | --- | --- | --- | --- | --- | --- | --- | --- | --- | --- |
| 2.63 | 2.63 | 0.0393 µM | 0.0383 µM and 0.0404 µM | COc1cc2c(N3CC[C@@H](Oc4cnc5ccccc5n4)C3)ncnc2cc1OCCF [IV, (R)-7-(2-fluoroethoxy)-6-methoxy-4-(3-(quinoxalin-2-yloxy)pyrrolidin-1-yl)quinazoline] | 0.562 µM | > 1 µM | 0.0887 µM | > 1 µM | > 1 µM | > 1 µM | > 1 µM | 0.105 µM | 0.053 µM | > 1 µM | > 1 µM | > 1 µM | – | – |
| – | – | – | – | FCCn1cc(-c2ccncc2)c(-c2ccc(OCc3ccc4ccccc4n3)cc2)n1 [JNJ41510417] | – | – | – | – | – | – | – | – | – | – | – | – | 0.0005 µM | 9.3 |
| – | – | – | – | Cc1cnc(COc2ccc(-c3nn(CCF)cc3-c3ccncc3)cc2)c(C)c1 [JNJ42259152] | – | – | – | – | – | – | – | – | – | – | – | – | – | 8.8 |
